Experimental data reported in patent US7534914B2, “Substituted methyl aryl or heteroaryl amide compounds” (ReQualia Pharma Inc., priority 2004, dated 2009).

Target: T1, human EP4 receptors (Homo sapiens, UniProt P35408)
T1 construct: expressed in transfected cells
Assay: cAMP assay in human EP4 transfectant
Assay type: cell-based
Conditions: HEK293 cells expressing human EP4 receptors, 1 nM PGE2, 0.2 mM IBMX, 37° C. for 10 min
Description: cAMP Assay in Human EP4 Transfectant
HEK293 cells expressing human EP4 receptors (hEP4 cells) are maintained in DMEM containing 10% FBS and 500 μg/ml geneticin. For harvesting hEP4 cells, culture medium is aspirated and cells in 75 cm^2 flask are washed with 10 ml of phosphate buffered saline (PBS). Another 10 ml of PBS is added to the cells and incubated for 20 min at room temperature. Human EP4 cells are harvested by pipetting and centrifuged at 300×g for 4 min. Cells are resuspended in DMEM without neutral red at a density of 7×10^5 cells/ml containing 0.2 mM IBMX (PDE inhibitor), 1 nM PGE2 and test compounds in PCR-tubes, and incubated at 37° C. for 10 min. The reaction is stopped by heating at 100° C. for 10 min with thermal cycler. Concentration of cAMP in reaction mixtures is determined with SPA cAMP Kit (Amersham) or cAMP Screen™ (Applied Biosystems) according to the manufacture's instruction. • Reference: Eur. J. Pharmacol. 340 (1997) 227-241. In Vivo Assays Carrageenan Induced Mechanical Hyperalgesia in Rats: […]

T1 sequence (P35408 whole entry): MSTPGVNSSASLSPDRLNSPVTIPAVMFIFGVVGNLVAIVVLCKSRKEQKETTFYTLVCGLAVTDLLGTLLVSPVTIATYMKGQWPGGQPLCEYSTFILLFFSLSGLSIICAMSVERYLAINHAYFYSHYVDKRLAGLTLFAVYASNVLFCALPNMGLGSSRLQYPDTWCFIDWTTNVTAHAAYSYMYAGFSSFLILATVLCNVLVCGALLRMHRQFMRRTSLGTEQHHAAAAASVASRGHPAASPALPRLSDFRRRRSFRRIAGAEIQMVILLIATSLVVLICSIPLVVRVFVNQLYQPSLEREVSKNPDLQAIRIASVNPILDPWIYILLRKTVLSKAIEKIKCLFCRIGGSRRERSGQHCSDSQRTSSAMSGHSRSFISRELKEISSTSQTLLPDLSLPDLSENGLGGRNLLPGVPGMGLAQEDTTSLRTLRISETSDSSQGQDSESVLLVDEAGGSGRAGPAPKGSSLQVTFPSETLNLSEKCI

SMILES	IC50
C[C@H](NC(=O)c1cc(Cl)ccc1COc1ccccc1Cl)c1ccc(C(=O)O)cc1 [EXAMPLE 1, 4-[(1S)-1-({5-chloro-2-[(2-chlorophenoxy)methyl]benzoyl}amino)ethyl]benzoic Acid]	19 nM
C[C@H](NC(=O)c1cc(Cl)ccc1COc1cccc(Cl)c1)c1ccc(C(=O)O)cc1 [EXAMPLE 2, 4-[(1S)-1-({5-chloro-2-[(3-chlorophenoxy)methyl]benzoyl}amino)ethyl]benzoic Acid]	11 nM
C[C@H](NC(=O)c1cc(Cl)ccc1COc1ccc(Cl)cc1)c1ccc(C(=O)O)cc1 [EXAMPLE 3, 4-[(1S)-1-({5-chloro-2-[(4-chlorophenoxy)methyl]benzoyl}amino)ethyl]benzoic Acid]	7.5 nM
C[C@H](NC(=O)c1cc(Cl)ccc1COc1ccc(F)cc1)c1ccc(C(=O)O)cc1 [EXAMPLE 4, 4-[(1S)-1-({5-chloro-2-[(4-fluorophenoxy)methyl]benzoyl}amino)ethyl]benzoic Acid]	15 nM
C[C@H](NC(=O)c1cc(Cl)ccc1COc1cccc(F)c1)c1ccc(C(=O)O)cc1 [EXAMPLE 5, 4-[(1S)-1-({5-chloro-2-[(3-fluorophenoxy)methyl]benzoyl}amino)ethyl]benzoic Acid]	23 nM
C[C@H](NC(=O)c1cc(Cl)ccc1COc1ccc(F)cc1F)c1ccc(C(=O)O)cc1 [EXAMPLE 8, 4-[(1S)-1-({5-chloro-2-[(2,4-difluorophenoxy)methyl]benzoyl}amino)ethyl]benzoic Acid]	17 nM
C[C@H](NC(=O)c1cc(Cl)ccc1COc1ccc(F)c(F)c1)c1ccc(C(=O)O)cc1 [EXAMPLE 11, 4-[(1S)-1-({5-chloro-2-[(3,4-difluorophenoxy)methyl]benzoyl}amino)ethyl]benzoic Acid]	16 nM
C[C@H](NC(=O)c1cc(Cl)ccc1COc1cc(F)cc(F)c1)c1ccc(C(=O)O)cc1 [EXAMPLE 12, 4-[(1S)-1-({5-chloro-2-[(3,5-difluorophenoxy)methyl]benzoyl}amino)ethyl]benzoic Acid]	22 nM
C[C@H](NC(=O)c1cc(Cl)ccc1COc1cncc(F)c1)c1ccc(C(=O)O)cc1 [EXAMPLE 14, 4-{(1S)-1-[(5-chloro-2-{[(5-fluoropyridin-3-yl)oxy]methyl}benzoyl)amino]ethyl}benzoic Acid]	380 nM
C[C@H](NC(=O)c1cc(Cl)ccc1COc1cncc(Cl)c1)c1ccc(C(=O)O)cc1 [EXAMPLE 15, 4-{(1S)-1-[(5-chloro-2-{[(5-chloropyridin-3-yl)oxy]methyl}benzoyl)amino]ethyl}benzoic Acid]	160 nM
C[C@H](NC(=O)c1cc(Cl)ccc1COC1CCCC1)c1ccc(C(=O)O)cc1 [EXAMPLE 16, 4-[(1S)-1-({5-chloro-2-[(cyclopentyloxy)methyl]benzoyl}amino)ethyl]benzoic Acid]	470 nM
CC(C)COCc1ccc(Cl)cc1C(=O)N[C@@H](C)c1ccc(C(=O)O)cc1 [EXAMPLE 17, 4-((1S)-1-{[5-chloro-2-(isobutoxymethyl)benzoyl]amino}ethyl)benzoic Acid]	180 nM
CNC(=O)c1cccc(OCc2ccc(Cl)cc2C(=O)N[C@@H](C)c2ccc(C(=O)O)cc2)c1 [EXAMPLE 19, 4-((1S)-1-{[5-chloro-2-({3-[(methylamino)carbonyl]phenoxy}methyl)benzoyl]amino}ethyl)benzoic Acid]	220 nM
C[C@H](NC(=O)c1cc(F)cnc1COc1ccc(Cl)cc1)c1ccc(C(=O)O)cc1 [EXAMPLE 21, 4-{(1S)-1-[({2-[(4-chlorophenoxy)methyl]-5-fluoropyridin-3-yl}carbonyl)amino]ethyl}benzoic Acid]	48 nM
C[C@H](NC(=O)c1cc(Cl)ccc1CN(C)c1ccc(Cl)cn1)c1ccc(C(=O)O)cc1 [EXAMPLE 22, 4-{(1S)-1-[(5-chloro-2-{[(5-chloropyridin-2-yl)(methyl)amino]methyl}benzoyl)amino]ethyl}benzoic Acid]	68 nM
C[C@H](NC(=O)c1cc(Cl)ccc1COCC1CCCCC1)c1ccc(C(=O)O)cc1 [EXAMPLE 23, 4-{(1S)-1-({5-chloro-2-[(cyclohexylmethoxy)methyl]benzoyl}amino)ethyl}benzoic Acid]	10 nM
C[C@H](NC(=O)c1cc(Cl)cnc1COc1cccc(F)c1)c1ccc(C(=O)O)cc1 [EXAMPLE 26, 4-{(1S)-1-[({5-chloro-2-[(3-fluorophenoxy)methyl]pyridin-3-yl}carbonyl)amino]ethyl}benzoic Acid]	56 nM

The remaining molecules from weak to strong by IC50, led by results:

IC50	SMILES
230 nM	C[C@H](NC(=O)c1cc(Cl)ccc1CN(C)c1ccc(F)cn1)c1ccc(C(=O)O)cc1 [EXAMPLE 25, 4-{(1S)-1-[(5-chloro-2-{[(5-fuluoropyridin-2-yl)(methyl)amino]methyl}benzoyl)amino]ethyl}benzoic Acid]
120 nM	C[C@H](NC(=O)c1cc(Cl)ccc1COCC(C)(C)C)c1ccc(C(=O)O)cc1 [EXAMPLE 24, 4-{(1S)-1-({5-chloro-2-[(2,2-dimethylpropoxy)methyl]benzoyl}amino)ethyl}benzoic Acid]
91 nM	C[C@H](NC(=O)c1cc(Cl)cnc1COc1ccc(F)cc1)c1ccc(C(=O)O)cc1 [EXAMPLE 27, 4-{(1S)-1-[({5-chloro-2-[(4-fluorophenoxy)methyl]pyridin-3-yl}carbonyl)amino]ethyl}benzoic Acid]
41 nM	C[C@H](NC(=O)c1cc(Cl)ccc1COc1cc(F)ccc1F)c1ccc(C(=O)O)cc1 [EXAMPLE 9, 4-[(1S)-1-({5-chloro-2-[(2,5-difluorophenoxy)methyl]benzoyl}amino)ethyl]benzoic Acid]
30 nM	C[C@H](NC(=O)c1cc(Cl)ccc1COc1ccccc1F)c1ccc(C(=O)O)cc1 [EXAMPLE 6, 4-[(1S)-1-({5-chloro-2-[(2-fluorophenoxy)methyl]benzoyl}amino)ethyl]benzoic Acid]
24 nM	C[C@H](NC(=O)c1cc(Cl)ccc1COc1c(F)cccc1F)c1ccc(C(=O)O)cc1 [EXAMPLE 10, 4-[(1S)-1-({5-chloro-2-[(2,6-difluorophenoxy)methyl]benzoyl}amino)ethyl]benzoic Acid]
22 nM	C[C@H](NC(=O)c1cc(Cl)cnc1COc1ccc(Cl)cc1)c1ccc(C(=O)O)cc1 [EXAMPLE 18, 4-{(1S)-1-[({5-chloro-2-[(4-chlorophenoxy)methyl]pyridin-3-yl}carbonyl)amino]ethyl}benzoic Acid]
17 nM	C[C@H](NC(=O)c1cc(Cl)cnc1COc1cccc(Cl)c1)c1ccc(C(=O)O)cc1 [EXAMPLE 20, 4-{(1S)-1-[({5-chloro-2-[(3-chlorophenoxy)methyl]pyridin-3-yl}carbonyl)amino]ethyl}benzoic Acid]
15 nM	C[C@H](NC(=O)c1cc(Cl)ccc1COc1cccc(F)c1F)c1ccc(C(=O)O)cc1 [EXAMPLE 7, 4-[(1S)-1-({5-chloro-2-[(2,3-difluorophenoxy)methyl]benzoyl}amino)ethyl]benzoic Acid]
8.3 nM	Cc1ccc(OCc2ccc(Cl)cc2C(=O)N[C@@H](C)c2ccc(C(=O)O)cc2)cc1 [EXAMPLE 13, 4-[(1S)-1-({5-chloro-2-[(4-methylphenoxy)methyl]benzoyl}amino)ethyl]benzoic Acid]
